Results as given in US11945811B2, “Potassium channel inhibitors” (ACESION PHARMA APS, priority 2021, dated 2024).

What follows are compounds tested against T1, human SK3 channel (hKCa2.3) (Homo sapiens, UniProt Q9UGI6) (assay: Automated patch clamping (QPatch 16 HT whole-cell recordings)). Settings: HEK-293 cells stably expressing hKCa2.3; currents measured at −80 mV; normalized to N-methyl bicuculline; read-out: IC50 in the Automated patch clamping assay (SK3 channel inhibition).
T1 construct: expressed in transfected cells
Format: cell-based
Experimental: Automated whole cell patch-clamp recordings were performed using a QPatch 16 HT system and single-hole Qplates (Sophion, Denmark) on HEK-293 cells stably expressing the human SK3 channel (hKCa2.3). Cells were cultured and prepared for experiments using normal cell culturing procedures. A total of 4-5 million cells were used per experiment. The Qpatch automatically generates giga sealing, whole-cell formation, compound application and recording of current. hKCa2.3 currents were recorded in symmetrical K^+ solutions. The intracellular/pipette solution contained 154 mM KCl, 10 mM HEPES and 10 mM EGTA. CaCl2 is added to give calculated free concentrations of Ca^2+ of 0.4 μM and MgCl2 is added to give a free concentration of 1 mM. In order to maintain a total [K^+] of 156 mM (corresponding to the concentration in the extracellular ringer) a fixed amount of KOH (15 mM) is added, thereafter pH is adjusted with HCl to pH=7.2. Expected osmolarity: 275 mOsm. Sucrose was added to a final osmolarity around 295 mosm. The extracellular solution consisted of (in mM): CaCl2 0.1, MgCl2 3, KCl 150, HEPES 10 and glucose 10, pH=7.4 adjusted with KOH. Osmolarity between 285-295 mosm. The cells were held at 0 mV and hKCa2.3 currents were elicited by a linear voltage ramp from −80 mV to +80 mV (200 ms in duration) applied every 5th second.
The compound application protocol consisted of 12 recording periods lasting 200 s: 1) Baseline recordings in extracellular solution; 2) Application of the positive control N-methyl bicuculline (100 μM), which is characterized by full efficacy, fast on- and off-rate; 3-4) Wash-out; 5-10) Increasing concentrations of test compound to establish an IC50 value; 11-12) Wash-out; 13) positive control with compound NS8593 (N-[(1R)-1,2,3,4-tetrahydro-1-naphthalenyl]-1H-benzimidazol-2-amine) (1 μM) or with N-methyl bicuculline (100 μM). Data were sampled at 10 kHz, 4th order Bessel filter, cut-off frequency 3 kHz. Currents were compensated for run-down. Potency was quantified as the concentration needed to inhibit half of the SK channel activity and reported as an IC50 value.
All effects of compounds of the present invention as tested were normalized to the observed inhibitory effect of N-methyl bicuculline. Currents were measured at −80 mV.
For `CC(CCO)(Nc1nc2c(Cn3ccoc3=N)cccc2[nH]1)c1cccc(C(F)(F)F)c1` (stereo not drawn) [Example 26, 3-({4-[(2-imino-2,3-dihydro-1,3-oxazol-3-yl)methyl]-1H-1,3-benzodiazol-2-yl}amino)-3-[3-(trifluoromethyl)phenyl]butan-1-ol], the IC50 was less than 30000 nM. Compound `CC(CO)(Nc1nc2c(CNc3ncco3)cccc2[nH]1)c1ccc(F)c(Cl)c1` (stereo not drawn) [Example 38, 2-(3-chloro-4-fluorophenyl)-2-[(4-{[(1,3-oxazol-2-yl)amino]methyl}-1H-1,3-benzodiazol-2-yl)amino]propan-1-ol] has an IC50 of less than 30000 nM. In the case of `CC(C)(Nc1nc2c(Cn3ccoc3=N)cccc2[nH]1)c1cccc(Cl)c1` [Example 2, N-[2-(3-chlorophenyl)propan-2-yl]-4-[(2-imino-2,3-dihydro-1,3-oxazol-3-yl)methyl]-1H-1,3-benzodiazol-2-amine], the IC50 is reported as less than 1000 nM. With `CC(CO)(Nc1nc2c(CNc3ccncn3)cccc2[nH]1)c1ccc(F)c(Cl)c1` (stereo not drawn) [Example 11, 2-(3-chloro-4-fluorophenyl)-2-[(4-{[(pyrimidin-4-yl)amino]methyl}-1H-1,3-benzodiazol-2-yl)amino]propan-1-ol] the IC50 was less than 30000 nM. For `Cc1cn(Cc2cccc3[nH]c(NC(C)(CO)c4cccc(C(F)(F)F)c4)nc23)c(=N)o1` (single isomer, unassigned) [Example 24a], the IC50 was less than 30000 nM. `Cc1coc(=N)n1Cc1cccc2[nH]c(NC(C)(CO)c3cccc(OC(F)(F)F)c3)nc12` (stereo not drawn) [Example 29, 2-({4-[(2-imino-4-methyl-2,3-dihydro-1,3-oxazol-3-yl)methyl]-1H-1,3-benzodiazol-2-yl}amino)-2-[3-(trifluoromethoxy)phenyl]propan-1-ol] showed an IC50 of less than 1000 nM. With `CC(CO)(Nc1nc2c(Cn3ccoc3=N)cccc2[nH]1)c1cc(F)cc(Cl)c1` (single isomer, unassigned) [Example 45a] the IC50 was less than 1000 nM. Compound `CC(Nc1nc2c(Cn3ccoc3=N)cccc2[nH]1)c1cccc(C(F)(F)F)c1` (stereo not drawn) [Example 4, 4-[(2-imino-2,3-dihydro-1,3-oxazol-3-yl)methyl]-N-{1-[3-(trifluoromethyl)phenyl]ethyl}-1H-1,3-benzodiazol-2-amine] has an IC50 of less than 1000 nM. For `N=c1occn1Cc1cccc2[nH]c(NC3(c4cccc(Cl)c4)CC3)nc12` [Example 1, N-[1-(3-chlorophenyl)cyclopropyl]-4-[(2-imino-2,3-dihydro-1,3-oxazol-3-yl)methyl]-1H-1,3-benzodiazol-2-amine], the IC50 was less than 30000 nM. With `CC(CO)(Nc1nc2c(CNc3ccon3)cccc2[nH]1)c1cc(Cl)ccc1F` (single isomer, unassigned; (+)) [Example 49a, (+)-2-(5-chloro-2-fluorophenyl)-2-[(4-{[(1,2-oxazol-3-yl)amino]methyl}-1H-1,3-benzodiazol-2-yl)amino]propan-1-ol] the IC50 was less than 30000 nM. For `Cc1cc(NCc2cccc3[nH]c(NC(C)(CO)c4ccc(F)c(Cl)c4)nc23)no1` (single isomer, unassigned; (-)) [Example 12a, (−)-2-(3-chloro-4-fluorophenyl)-2-((4-(((5-methylisoxazol-3-yl)amino)methyl)-1H-benzo[d]imidazol-2-yl)amino)propan-1-ol], the IC50 was less than 1000 nM. For `CC(CO)(Nc1nc2c(CNc3ncco3)cccc2[nH]1)c1cccc(Cl)c1F` (single isomer, unassigned; (+)) [Example 42a, (+)-2-(3-chloro-2-fluorophenyl)-2-[(4-{[(1,3-oxazol-2-yl)amino]methyl}-1H-1,3-benzodiazol-2-yl)amino]propan-1-ol], the IC50 was less than 30000 nM. In the case of `CC(CO)(Nc1nc2c(CNc3ncco3)cccc2[nH]1)c1cc(Cl)ccc1F` (single isomer, unassigned; (+)) [Example 48a, (+)-2-(5-chloro-2-fluorophenyl)-2-[(4-{[(1,3-oxazol-2-yl)amino]methyl}-1H-1,3-benzodiazol-2-yl)amino]propan-1-ol], the IC50 is reported as less than 30000 nM. In the case of `CC(CO)(Nc1nc2c(Cn3ccoc3=N)cccc2[nH]1)c1cccc(C(F)(F)F)c1` (stereo not drawn) [Example 18, 2-({4-[(2-imino-2,3-dihydro-1,3-oxazol-3-yl)methyl]-1H-1,3-benzodiazol-2-yl}amino)-2-[3-(trifluoromethyl)phenyl]propan-1-ol], the IC50 is reported as less than 1000 nM. `CC(CO)(Nc1nc2c(CN3CCCC3=O)cccc2[nH]1)c1ccc(F)c(Cl)c1` (stereo not drawn) [Example 37, 1-[(2-{[2-(3-chloro-4-fluorophenyl)-1-hydroxypropan-2-yl]amino}-1H-1,3-benzodiazol-4-yl)methyl]pyrrolidin-2-one] gave an IC50 of less than 30000 nM. In the case of `CC(CO)(Nc1nc2c(Cn3ccsc3=N)cccc2[nH]1)c1ccc(F)c(Cl)c1` (stereo not drawn) [Example 32, 2-(3-chloro-4-fluorophenyl)-2-({4-[(2-imino-2,3-dihydro-1,3-thiazol-3-yl)methyl]-1H-1,3-benzodiazol-2-yl}amino)propan-1-ol], the IC50 is reported as less than 1000 nM. For `CC(CO)(Nc1nc2c(Cn3ccoc3=N)cccc2[nH]1)c1ccc(F)c(Cl)c1` (single isomer, unassigned; (-)) [Example 8a, (−)-2-(3-chloro-4-fluorophenyl)-2-({4-[(2-imino-2,3-dihydro-1,3-oxazol-3-yl)methyl]-1H-1,3-benzodiazol-2-yl}amino)propan-1-ol], the IC50 was less than 1000 nM. Compound `CC(C)(Nc1nc2c(Cn3ccoc3=N)cccc2[nH]1)c1cccc(C(F)(F)F)c1` [Example 7, 4-[(2-imino-2,3-dihydro-1,3-oxazol-3-yl)methyl]-N-{2-[3-(trifluoromethyl)phenyl]propan-2-yl}-1H-1,3-benzodiazol-2-amine] has an IC50 of less than 1000 nM. `Cc1cc(NCc2cccc3[nH]c(NC(C)(CO)c4ccc(F)c(Cl)c4)nc23)no1` (stereo not drawn) [Example 12, 2-(3-chloro-4-fluorophenyl)-2-[(4-{[(5-methyl-1,2-oxazol-3-yl)amino]methyl}-1H-1,3-benzodiazol-2-yl)amino]propan-1-ol] was tested, and the IC50 was less than 1000 nM. In the case of `Cc1coc(=N)n1Cc1cccc2[nH]c(NC(C)(CO)c3cccc(C(F)(F)F)c3)nc12` (stereo not drawn) [Example 23, 2-({4-[(2-imino-4-methyl-2,3-dihydro-1,3-oxazol-3-yl)methyl]-1H-1,3-benzodiazol-2-yl}amino)-2-[3-(trifluoromethyl)phenyl]propan-1-ol], the IC50 is reported as less than 1000 nM. `CC(CO)(Nc1nc2c(Cn3ccoc3=N)cccc2[nH]1)c1cccc(C(F)(F)F)c1` (single isomer, unassigned; (-)) [Example 18a, (−)-2-({4-[(2-imino-2,3-dihydro-1,3-oxazol-3-yl)methyl]-1H-1,3-benzodiazol-2-yl}amino)-2-[3-(trifluoromethyl)-phenyl]propan-1-ol] gave an IC50 of less than 1000 nM. For `Cc1cn(Cc2cccc3[nH]c(NC(C)(CO)c4cccc(C(F)(F)F)c4)nc23)c(=N)o1` (single isomer, unassigned; (+)) [Example 24b, (+)-2-({4-[(2-imino-5-methyl-2,3-dihydro-1,3-oxazol-3-yl)methyl]-1H-1,3-benzodiazol-2-yl}amino)-2-[3-(trifluoromethyl)-phenyl]propan-1-ol], the IC50 was less than 1000 nM. For `CC(CO)(Nc1nc2c(Cn3ccoc3=N)cccc2[nH]1)c1ccc(Cl)c(F)c1` (single isomer, unassigned) [Example 39a, 2-(4-chloro-3-fluorophenyl)-2-({4-[(2-imino-2,3-dihydro-1,3-oxazol-3-yl)methyl]-1H-1,3-benzodiazol-2-yl}amino)propan-1-ol], the IC50 was less than 1000 nM. For `CC(CO)(Nc1nc2c(Cn3ccoc3=N)cccc2[nH]1)c1cccc(OC(F)(F)F)c1` (single isomer, unassigned; (+)) [Example 27a, (+)-2-({4-[(2-imino-2,3-dihydro-1,3-oxazol-3-yl)methyl]-1H-1,3-benzodiazol-2-yl}amino)-2-[3-(trifluoromethoxy)phenyl]propan-1-ol], the IC50 was less than 1000 nM. With `Cc1cn(Cc2cccc3[nH]c(NC(C)(CO)c4cccc(C(F)(F)F)c4)nc23)c(=N)o1` (stereo not drawn) [Example 24, 2-({4-[(2-imino-5-methyl-2,3-dihydro-1,3-oxazol-3-yl)methyl]-1H-1,3-benzodiazol-2-yl}amino)-2-[3-(trifluoromethyl)phenyl]propan-1-ol] the IC50 was less than 1000 nM. `CC(CO)(Nc1nc2c(Cn3ccoc3=N)cccc2[nH]1)c1cccc(Cl)c1` (stereo not drawn) [Example 3, 2-(3-chlorophenyl)-2-({4-[(2-imino-2,3-dihydro-1,3-oxazol-3-yl)methyl]-1H-1,3-benzodiazol-2-yl}amino)propan-1-ol] gave an IC50 of less than 1000 nM. Compound `COCC(C)(Nc1nc2c(Cn3c(C)coc3=N)cccc2[nH]1)c1cccc(Cl)c1` (stereo not drawn) [Example 10, N-[2-(3-chlorophenyl)-1-methoxypropan-2-yl]-4-[(2-imino-4-methyl-2,3-dihydro-1,3-oxazol-3-yl)methyl]-1H-1,3-benzodiazol-2-amine] has an IC50 of less than 30000 nM.
